Source: patent US11192865B2, “Benzosulfonyl compounds” (Vivace Therapeutics, Inc., priority 2017, dated 2021)

Each compound was assayed on 8XTBD luciferase reporter (assay: YAP Reporter Assay). Details: Homo sapiens, HEK-293T; HEK293T cells stably transfected with 8XTBD luciferase reporter and pRLTK; 24-hr incubation; starting from 3 μM, 1:3 dilution, 10 points; read-out: Firefly Luciferase IC50.
Assay type: cell-based
Procedure, shortened: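 HEK293T cells stably carrying the 8XTBD firefly luciferase reporter and TK-renilla control received compounds at a 10-point, 1:3 series from 3 μM (final) in quadruplicate. After 24 h at 37° C, Dual-Glo luminescence was read. IC50 and maximal inhibition were reported separately for firefly and renilla signals.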

Structure (SMILES)	IC50 [nM]
CNS(=O)(=O)c1ccc(Nc2ccc(Oc3ccccc3)cc2)c(-c2nnn(C)n2)c1 [Compound 130, N-methyl-3-(2-methyltetrazol-5-yl)-4-(4-phenoxyanilino) benzenesulfonamide]	1000 to 3000
CNS(=O)(=O)c1ccc(NC2CCCCC2)c(-c2nc(C)n(C)n2)c1 [Compound 67, 4-(cyclohexylamino)-3-(1,5-dimethyl-1H-1,2,4-triazol-3-yl)-N-methylbenzenesulfonamide]	≤ 100
CNS(=O)(=O)c1ccc(Nc2cc(Cl)c(Cl)c(Cl)c2)c(-c2cn(C)cn2)c1 [Compound 145, N-methyl-3-(1-methylimidazol-4-yl)-4-(3,4,5-trichloroanilino)benzenesulfonamide]	≤ 100
CNS(=O)(=O)c1ccc(NC2CCCCC2)c(-c2nnn(CCO)n2)c1 [Compound 44, 4-(cyclohexylamino)-3-(2-(2-hydroxyethyl)-2H-tetrazol-5-yl)-N-methylbenzenesulfonamide]	100 to 1000
CNS(=O)(=O)c1ccc(Nc2cccc(F)c2F)c(-c2nnnn2C)c1 [Compound 106, 4-((2,3-difluorophenyl)amino)-N-methyl-3-(1-methyl-1H-tetrazol-5-yl)benzenesulfonamide]	> 3000
CNS(=O)(=O)c1ccc(NC2CCCCC2)c(-c2nnn(-c3ccccc3F)n2)c1 [Compound 23, 4-(cyclohexylamino)-3-(2-(2-fluorophenyl)-2H-tetrazol-5-yl)-N-methylbenzenesulfonamide]	100 to 1000
CNS(=O)(=O)c1ccc(NC2CCCCC2)c(-c2nnc(C)o2)c1 [Compound 105, 4-(cyclohexylamino)-N-methyl-3-(5-methyl-1,3,4-oxadiazol-2-yl)benzenesulfonamide]	≤ 100
CS(=O)(=O)c1ccc(NC2CCCCC2)c(-n2nccn2)c1 [Compound 13, N-cyclohexyl-4-(methylsulfonyl)-2-(2H-1,2,3-triazol-2-yl)aniline]	100 to 1000
CNS(=O)(=O)c1ccc(NC2CCCCC2)c(-c2ccncn2)c1 [Compound 69, 4-(cyclohexylamino)-N-methyl-3-(pyrimidin-4-yl)benzenesulfonamide]	100 to 1000
CNS(=O)(=O)c1ccc(NC2CCCCC2)c(-c2cn(C3CC3)cn2)c1 [Compound 111, 4-(cyclohexylamino)-3-(1-cyclopropyl-1H-imidazol-4-yl)-N-methylbenzenesulfonamide]	≤ 100
CNS(=O)(=O)c1ccc(NC2CCCCC2)c(-c2nnn(C(C)C)n2)c1 [Compound 26, 4-(cyclohexylamino)-3-(2-isopropyl-2H-tetrazol-5-yl)-N-methylbenzenesulfonamide]	≤ 100
